Test results as given in patent US20160120864A1, “Novel Pyrrole Derivatives” (priority 2013, published 2016).
Counter-ions that a name gives are not always drawn.

Key:
[1] = target: pneumolysin (Streptococcus pneumoniae serotype 2, UniProt Q04IN8); assay: Inhibition of the haemolytic activity of pneumolysin (sheep erythrocytes); format: cell-based
Method: A. Primary In Vitro Assay: Inhibition of the Haemolytic Activity of Pneumolysin
The basis of this assay is that when pneumolysin is added to red blood cells, it induces their lysis and leads to the release of haemoglobin. In the presence of an inhibitory compound, pneumolysin-induced lysis is abolished, the red blood cells pellet at the bottom of the microtitre plate well and the supernatant is clear. However, if the compound is not inhibitory, the red blood cells are lysed and haemoglobin is released into the supernatant.
Test compound solutions (typically at 5 mM in DMSO) were diluted 1:1 in 100% DMSO. The compounds were then two-fold serially diluted in 100% DMSO across 11 wells of 96-well round-bottomed microtitre plate. PBS was then added to all the wells to achieve a 1:10 dilution of the compound in PBS. Pneumolysin was then added at a concentration equal to its LD100. Plates were then incubated at 37° C. for 30-40 min. After the incubation period, an equal volume of 4% (v/v) sheep erythrocyte suspension was added to each well and the plates incubated again at 37° C., for at least 30 min. […] Following the incubation with the erythrocytes, the Absorbance at 595 nm of each well was measured and the data used to determine the IC50 for each test compound. The IC50 values were determined using non-linear regression curve fitting. […]

[2] = physchem; format: physicochemical; details: for solubility: aqueous buffer, thermodynamic from solid, PBS pH 7.2; for Solubility in aqueous formulations compatible with intravenous dosing (in words): aqueous formulations at the desired concentrations
Method: PBS solutions for solubility and stability studies were prepared by dissolving 1 Oxoid™ tablet (obtained from Thermo Scientific) in deionised water (100 mL).
Solubility studies were performed by charging a vial with 5-10 mg of compound followed by the addition of PBS solution to achieve a concentration of 100 mg/ml. If solubility was not observed, the solution was diluted to concentrations of 50 mg/ml, 25 mg/ml and 4 mg/ml consecutively until complete solubility was observed.

[3] = physchem; format: physicochemical; details: buffer; PBS, 37.5° C.; read-out: Chemical stability in aqueous formulation (t½) (converted)
Method: (§1) Stability studies were carried out by dissolving 1-2 mg of compound in DMSO (1 mL) followed by addition of 0.4 mL of the resulting solution to stirred PBS solution (9.6 mL) at 37.5° C. A sample (ca. 0.5 mL) was immediately taken for HPLC analysis. Further samples were then taken for analysis at various timepoints thereafter. Half-lives were determined from the decrease in concentration of compound with respect to time.
as §1, with “performed” for “carried out”, “ml)” for “mL)”, “ml” for “mL”, “PBS” for “PBS solution”, “(-j” for “(ca.”, “time-points” for “timepoints”

[4] = format: in vitro ADME; details: mouse plasma, 37° C., starting 10 μM
Method: The samples were then analysed by LC-MS/MS to obtain the amount of active compound appearing and prodrug derivative remaining over time.
The prodrug derivative of the invention was assessed in mouse plasma stability assay at a concentration of 10 μM. Test compounds were diluted in DMSO to a final stock concentration of 10 mM. For the purpose of the assay, the stocks prepared were further diluted in DMSO to a concentration of 400 μM and 5 μL were added to 195 μL of mouse plasma (pH 7.4) and then incubated at 37° C. The final concentration of DMSO in the plate was 2.5% (v/v). Reactions were terminated at 0, 15, 30, 60 and 120 min after incubation by adding 400 μL of acetonitrile containing 0.55 μM metoprolol and 1% (v/v) formic acid. The plate was then centrifuged at 3000 rpm, for 45 min, at 4° C. 80 μL of supernatant were transferred into a conical bottom 96 well glass coated plate. 40 μL of water were added prior to analysis for prodrug derivative and active species by LC-MS/MS. This assay was performed by a contract research organisation, Cyprotex Discovery Limited, UK, at the request of the inventors at Leicester.
The quantification of the prodrug compound remaining and the parent active compound appearing was performed as follows:
(1) The parent active compound was quantified using a 6 point calibration curve prepared in deactivated mouse plasma. (2) The percentage of prodrug compound remaining at each time point relative to 0 min sample was calculated from LC-MS/MS peak area ratios (compound peak area/internal standard peak area). This percentage was then used to determine the concentration of the prodrug compound at each time point in reference to the starting concentration (10 μM) at time 0 min.

Sequence of pneumolysin (Q04IN8 whole entry): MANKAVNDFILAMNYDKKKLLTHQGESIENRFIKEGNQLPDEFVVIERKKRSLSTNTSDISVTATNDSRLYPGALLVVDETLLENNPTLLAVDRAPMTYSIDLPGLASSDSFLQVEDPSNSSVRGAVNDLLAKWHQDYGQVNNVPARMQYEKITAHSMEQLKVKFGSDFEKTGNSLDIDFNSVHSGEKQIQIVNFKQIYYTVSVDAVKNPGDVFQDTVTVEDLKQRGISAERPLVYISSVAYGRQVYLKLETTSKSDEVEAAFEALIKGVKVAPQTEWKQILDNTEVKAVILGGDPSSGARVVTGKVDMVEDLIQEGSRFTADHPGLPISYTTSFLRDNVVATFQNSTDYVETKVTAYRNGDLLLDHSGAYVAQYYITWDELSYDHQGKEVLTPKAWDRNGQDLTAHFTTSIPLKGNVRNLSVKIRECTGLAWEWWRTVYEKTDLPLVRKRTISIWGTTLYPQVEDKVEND

SMILES: COc1ccc(-n2c(C(=O)N3CCN(C)CC3)c(O)c(O)c2C(=O)N2CCN(C)CC2)cc1 [UL7-001, (3,4-Dihydroxy-1-(4-methoxyphenyl)-1H-pyrrole-2,5-diyl)bis((4-methylpiperazin-1-yl)methanone)]
- IC50 [1]: 0.3 µM
- solubility [2]: ≥ 100 mg/mL
- Solubility in aqueous formulations compatible with intravenous dosing (in words) [2]: readily soluble
- half-life [3]: < 0.5 h

SMILES: COc1ccc(-n2c(C(=O)N3CCN(C)CC3)c(OC(=O)C(C)C)c(OC(=O)C(C)C)c2C(=O)N2CCN(C)CC2)cc1 [UL7-002, 1-(4-Methoxyphenyl)-2,5-bis(4-methylpiperazine-1-carbonyl)-1H-pyrrole-3,4-diyl bis(2-methylpropanoate)dihydrochloride]
- IC50 [1]: 6.8 µM
- solubility [2]: ≥ 100 mg/mL
- Solubility in aqueous formulations compatible with intravenous dosing (in words) [2]: readily soluble
- half-life [3]: 47 h
- Prodrug (UL7-002) concentration remaining, t0 min. ([4]; 0 min): 10.00 µM
- Prodrug (UL7-002) concentration remaining, t15 min. ([4]; 15 min): 0.00 µM
- Prodrug (UL7-002) concentration remaining, t30 min. ([4]; 30 min): 0.01 µM
- Prodrug (UL7-002) concentration remaining, t60 min. ([4]; 60 min): 0.00 µM
- Prodrug (UL7-002) concentration remaining, t120 min. ([4]; 120 min): 0.00 µM
